How the values were obtained:
Format in all cases: cell-based
[1] = test system: mouse embryonic stem cells; experiment: Cell death inducing effect of low-concentration mannitol on mouse embryonic stem cells (adhesion, morphology); conditions: 0.2 M
Experimental: Embryonic stem cells as cultured by the method described in Example 1 were cultured for an additional 48 or 72 hours in an α-MEM culture medium containing 0.2 M mannitol (approximately equivalent to 480 mOsm/kg); thereafter, the stem cells were checked for the state of their survival in terms of cell adhesion or non-adhesion and by morphological observation; the results are shown in FIG. 15.

[2] = test system: human embryonic stem cell-derived embryoid bodies; experiment: Cell death inducing effect on residual stem cells in human embryonic stem cell-derived embryoid bodies and enrichment of cardiomyocytes; conditions: 0.45 M, 2 hours
Experimental: After passaging, human embryonic stem cells were subjected to suspension culture in a culture medium [α-MEM (minimum essential medium) (SIGMA), supplemented with 10% FBS (EQUITEC BIO), 100 units/ml penicillin, and 50 μg/ml streptomycin (GIBCO)] to induce formation of embryoid bodies. At 14-18 days after the start of differentiation (the start of suspension culture), autonomously pulsating cells started to differentiate, which was confirmed in a separate step that they were cardiomyocytes.
The embryoid bodies still maintained an autonomously pulsating ability after the passage of 3 months from the start of differentiation. They were partially treated with 0.1% collagenase (Wortington) and 0.1% trypsin (DIFCO) to be dispersed as fine cell masses. The cell masses were divided into two groups; one group was treated with 0.45 M mannitol (approximately equivalent to 720 mOsm/kg) for 2 hours, and the other group (control) was not treated with mannitol but treated with the same amount of a solution having the physiological osmotic pressure, Ads buffer (116.4 mM NaCl, 5.4 mM KCl, 5.6 mM dextrose, 10.9 mM NaH2PO4, 405.7 μM MgSO4, 20 mM Hepes, pH 7.3) for 2 hours. After the treatment, both cell groups were subjected to adherent culture for 3 days in a DMEM solution supplemented with 10% fetal calf serum.
The mannitol-treated cells and the control cells were analyzed in accordance with the experimental procedure of Example 1 using a mouse anti-Oct-3/4 monoclonal antibody (No. 084720 of BD Transduction Laboratories) and a goat anti-Nkx 2.5 antibody (No. N-19 of Santacruz) as primary antibodies, for the expression of the Oct-3/4 protein which was both a marker of embryonic stem cells and an intranuclear transcription factor, and for the expression of the Nkx 2.5 protein which was both a cardiomyocyte marker and an intranuclear transcription factor, respectively. The results for the control group, one of the two divided samples, are shown in FIG. 10 and the results for the test group subjected to 2-hr treatment with mannitol are shown in FIG. 11. The upper panels of FIG. 10 show the results of cardiomyocytes and the lower panels show the results of embryonic stem cells.
The embryoid bodies still maintained an autonomously pulsating ability after the passage of 3 months from the start of differentiation. They were partially treated with 0.1% collagenase (Wortington) and 0.1% trypsin (DIFCO) to be dispersed as fine cell masses. The cell masses were divided into two groups; one group was treated with saccharides (sugar alcohols: sorbitol, xylitol, and glycerol; sugars: sucrose and glucose; betaines: trimethylglycine) for 12 hours in an amount of 0.45 M (approximately equivalent to 700-780 mOsm/kg) or 0.6 M (approximately equivalent to 850-1000 mOsm/kg), and the other group (control) was not treated with those saccharides but treated with the same amount of a solution having the physiological osmotic pressure, Ads buffer (116.4 mM NaCl, 5.4 mM KCl, 5.6 mM dextrose, 10.9 mM NaH2PO4, 405.7 μM MgSO4, 20 mM Hepes, pH 7.3) for 2 hours. After the treatment, both cell groups were cultured for 12 hours in a DMEM solution supplemented with 10% fetal calf serum.
Samples of differentiated cells derived from human embryonic stem cells, as treated with 0.45 M glycerol (approximately equivalent to 710 mOsm/kg) or 0.6 M glycerol (approximately equivalent to 870 mOsm/kg), were examined for their morphology under the culture conditions. […] The cell death inducing effect was noticeable when the cells were exposed to glycerol for 10 hours and longer (FIG. 14).

[3] = test system: marmoset embryonic stem cells; experiment: Cell death inducing effect on marmoset embryonic stem cells (TMRM FACS, 5-day adherent culture); conditions: 0.45 M, 2 hours
Experimental: The marmoset embryonic stem cells were obtained from the Central Institute for Experimental Animals (Stem Cells, 2005 October; 23(9): 1304-13). The cells were cultured basically in accordance with the method described in this document. To be more specific, the marmoset embryonic stem cells were cultured to maintain their undifferentiated state using mouse embryonic fibroblasts (MEF) that had been inactivated for growth by treatment with mitomycin C. The culture medium of KO-DMEM (GIBCO), supplemented with 20% KO-SERUM (GIBCO), 1.6 mM L-glutamine, 0.1 mM non-essential amino acids (MEM), 0.2 mM β-mercaptoethanol (2-ME; Sigma), 100 IU/ml penicillin, 100 μg/ml streptomycin sulfate, and 8 ng/ml recombinant human leukemia inhibiting factor (LIF; Chemicon) or recombinant human basic fibroblast growth factor (bFGF; Peprotech) was used. Upon passaging, the cells were treated with 0.1% type III collagenase (Wortington) at 37° C. for 10 minutes to separate ES colonies. […] Thereafter, the cells treated with mannitol for 2 hours and the control cells were analyzed by FACS for the level of mitochondrial membrane potential on the basis of the fluorescent intensity of TMRM to check the state of survival of the stem cells; the results are shown in FIG. 5. […]

[4] = one week after the treatment, immunohistochemical technique

OC[C@@H](O)[C@@H](O)[C@H](O)[C@H](O)CO [mannitol]
State of survival (cell adhesion, morphology) ([1]; 48 hours): almost all colonies had already detached from the culture dish | State of survival (cell adhesion, morphology) ([1]; 72 hours): the cells were completely dead | Toxicity in cardiomyocytes [2]: does not show significant toxicity in cardiomyocytes | Autonomously pulsating cells ([2]; then 3 days adherent culture): autonomously pulsating cell populations and autonomously pulsating single cells were found adherent to or suspended in the culture dish | Colonies of cells assumed to be undifferentiated cells ([2]; then 3 days adherent culture): no such cell populations were found at all | Type of surviving cells (Nkx 2.5) [2, 4]: a great majority of the surviving cells were Nkx 2.5 positive cardiomyocytes | Type of surviving cells (Oct-3/4) [2, 4]: Oct-3/3 negative cells were hardly detectable | Mitochondrial membrane potential (TMRM fluorescence, FACS) [3]: almost all of the cells treated with mannitol for 2 hours had lost membrane potential | Survival after adherent culture for 5 days ([3]; then 5 days adherent culture): none of the cells exposed to mannitol were found alive
